For assay [1], the system named is Ba/F3 cells expressing OCLN-RASGRF1. Put plainly: Cell viability (Cell Titer-Glo), Ba/F3 cells expressing OCLN-RASGRF1. The format is cell-based. The method, then: Ba F3 Transformation Assays. Ba/F3 cells were maintained in RPMI 1640 (Gibco) with heat-inactivated 10% fetal bovine serum (Gibco) and penicillin (100 units/mL)/streptomycin (100 μg/mL; Gibco) and 1 ng/mL interleukin-3 (IL-3; Gibco). cDNAs (GFP or OCLN-RASGRF1) in pLX307 were introduced into Ba/F3 cells via lentiviral transduction with 8 μg/mL polybrene and centrifugation at 2250 rpm at 37 degrees C. for 30 minutes. 24 hours later, transduced cells were selected with 1 μg/mL puromycin for at least 5 days.
Cell Viability Assays and RASGRF1 knockdown. Ba/F3 cells or PaCaDD137 cells were seeded in 96-well microtiter plates. Drug or drug vehicle was added on the same day (for Ba/F3 cells) or 24 hours after seeding (for PaCaDD137 cells). Following 4-5 days of drug exposure, cell viability was determined using the Cell Titer-Glo luminescent assay (Promega) according to the manufacturer's instructions. Luminescence was measured with a Spectramax M3 plate reader (Molecular Devices). Data analysis was performed using GraphPad Prism software.
(In general: In ATP-based viability assays light output follows the ATP content of the culture.)

The test system of another assay is PaCaDD137 cells. Put plainly: Cell viability (Cell Titer-Glo), PaCaDD137 cells. The format is cell-based. The method, then:
Cell Viability Assays and RASGRF1 knockdown. Ba/F3 cells or PaCaDD137 cells were seeded in 96-well microtiter plates. Drug or drug vehicle was added on the same day (for Ba/F3 cells) or 24 hours after seeding (for PaCaDD137 cells). […] Luminescence was measured with a Spectramax M3 plate reader (Molecular Devices). Data analysis was performed using GraphPad Prism software.

As to `CC(=O)Nc1cccc(-n2c(=O)n(C3CC3)c(=O)c3c(Nc4ccc(I)cc4F)n(C)c(=O)c(C)c32)c1` [trametinib], the IC50 in assay [1] (Mus musculus, BaF3, 96 h, 4 days exposure, Cell Titer-Glo, read-out: half maximal inhibitory concentration (IC50), cell viability) was approximately 0.15 nM; in the assay on PaCaDD137 cells (120 h, 5 days, Cell Titer-Glo), approximately 20 nM.

Regarding `CS(=O)(=O)N1CCN(Cc2cc3nc(-c4cccc5[nH]ncc45)nc(N4CCOCC4)c3s2)CC1` [pictilisib], the “activity of addition of pictilisib to trametinib compared to trametinib alone” value in assay [1] (100 or 500 nM pictilisib, 4 days) is “only a modest increase in activity”; with PaCaDD137 cells (100 or 500 nM pictilisib, 6 days), “only a modest increase in activity”. Besides, the “sensitivity (cell viability)” value in assay [1] (4 days, Cell Titer-Glo) is given as “only a modest increase in sensitivity”; in the assay with PaCaDD137 cells (Cell Titer-Glo), “not”.
